Test results taken from patent US7528128B2, “Pyrrolo[2,1-C][1,4]benzodiazepine hybrids and a process for the preparation thereof” (Council of Scientific & Industrial Research, priority 2006, dated 2009).
≈ marks a conversion by molar mass, not a printed value.

Tests used:
[1] = system: duplex-form calf thymus DNA (CT-DNA); experiment: Thermal denaturation studies with CT-DNA; assay type: binding; conditions: for ΔTm after incubation at 37° C. for 0 h / ΔTm after incubation at 37° C. for 18 h / ΔTm after incubation at 37° C. for 36 h: [PBD]:[DNA] 1:5, CT-DNA 100 μM, ligand 20 μM; for ΔTm after incubation at 37° C. for 0 h: pH 7.00, 0 h; for ΔTm after incubation at 37° C. for 18 h: pH 7.00, 18 h; for ΔTm after incubation at 37° C. for 36 h: pH 7.00, 36 h; for course of ΔTm over 0 hr, 18 hr and 36 hr (in words): incubation at 37° C.
Method: Compounds were subjected to thermal denaturation studies with duplex-form calf thymus DNA (CT-DNA) using an adaptation of a reported procedure. Working solutions in aqueous buffer (10 mM NaH2PO4/Na2HPO4, 1 mM Na2EDTA, pH 7.00+0.01) containing CT-DNA (100 μm in phosphate) and the PBD (20 μm) were prepared by addition of concentrated PBD solutions in DMSO to obtain a fixed [PBD]/[DNA] molar ratio of 1:5. The DNA-PBD solutions were incubated at 37° C. for 0, 18, and 36 h prior to analysis. Samples were monitored at 260 nm using a Beckman DU-7400 spectrophotometer fitted with high performance temperature controller, and heating was applied at 1° C. min−1 in the 40-90° C. range. DNA helix coil transition temperatures (Tm) were obtained from the maxima in the (dA260)/dT derivative plots. Results are given as the mean ±standard deviation from three determinations and are corrected for the effects of DMSO co-solvent using a linear correction term. Drug-induced alterations in DNA melting behaviour are given by: ΔTm=Tm(DNA+PBD)−Tm (DNA alone), where the Tm value for the PBD-free CT-DNA is 69.0±0.01.

Colo205 (colon) = experiment: In vitro cytotoxicity, 48 h continuous drug exposure; assay type: cell-based, human; conditions: for Activity status in terms of IC50 value: Colo205, Colon; for cell growth by %: Colo205, relative to untreated control cells
Method: (§1) In vitro evaluation of cytotoxic activity. The compound 5a, 5b, 5g, 5i and 5j were evaluated for in vitro anticancer activity against nine human tumour cells derived from six cancer types (colon, prostate, oral, lung, cervix and breast cancer) as shown in Table 3. […] Compounds 5a, 5b, 5g, 5i and 5j have been evaluated for their in vitro cytotoxicity in selected human cancer cell lines of colon (Colo205), lung (Hop-62), cervix (SiHa), prostate (DU145, PC3), oral (DWD, HT1080), and breast (MCF7, Zr-75-1) origin. A protocol of 48 h continuous drug exposure has been used and an […] has been used to estimate cell viability or growth. […] Compound 5a, Colo205 cell growth by 83%, DU145 cell growth by 84%, DWD cell growth by 70%, Hop62 cell growth by 87%, HT1080 cell growth by 80%, MCF7 cell growth by 73%, PC3 cell growth by 91%, SiHa cell growth by 67%, Zr-75-1 cell growth by 76%. Compound 5b, Colo205 cell growth by 20%, DU145 cell growth by 64%, DWD cell growth by 70%, Hop62 cell growth by 78%, HT1080 cell growth by 72%, MCF7 cell growth by 69%, PC3 cell growth by 72%, SiHa cell growth by 20%, Zr-75-1 cell growth by 20%. Compound 5g, Colo205 cell growth by 50%, DU145 cell growth by 20%, DWD cell growth by 94%, Hop62 cell growth by 84%, HT1080 cell growth by 94%, MCF7 cell growth by 71%, PC3 cell growth by 86%, SiHa cell growth by 74%, Zr-75-1 cell growth by 72%. Compound 5i, DU145 cell growth by 42%, Hop62 cell growth by 60%, HT1080 cell growth by 70%, Compound 5j, Colo205 cell growth by 44%, DU145 cell growth by 57%, DWD cell growth by 65%, Hop62 cell growth by 53%, HT1080 cell growth by 71%, PC3 cell growth by 81%, SiHa cell growth by 77%.

Hop62 (lung) = experiment: as above; assay type: cell-based, human; conditions: for Activity status in terms of IC50 value: Hop62, Lung; for cell growth by %: Hop62, relative to untreated control cells
Method: as §1

SiHa (cervix) = experiment: as above; assay type: cell-based, human; conditions: for cell growth by %: relative to untreated control cells
Method: as §1

DWD (oral) = experiment: as above; assay type: cell-based, human; conditions: for cell growth by %: relative to untreated control cells
Method: as §1

Zr-75-1 (breast) = experiment: as above; assay type: cell-based, human; conditions: for cell growth by %: Zr-75-1, relative to untreated control cells
Method: as §1

MCF7 (breast) = experiment: as above; assay type: cell-based, human; conditions: for cell growth by %: MCF7, relative to untreated control cells
Method: as §1

DU145 (prostate) = experiment: as above; assay type: cell-based, human; conditions: for Activity status in terms of IC50 value: DU145, Prostate; for cell growth by %: DU145, relative to untreated control cells
Method: as §1

PC3 (prostate) = experiment: as above; assay type: cell-based, human; conditions: for cell growth by %: PC3, relative to untreated control cells
Method: as §1

HT1080 (oral) = experiment: as above; assay type: cell-based, human; conditions: for Activity status in terms of IC50 value: HT1080, Oral; for cell growth by %: HT1080, relative to untreated control cells
Method: as §1

[2] = system: selected human cancer cell lines; experiment: In vitro cytotoxicity in selected human cancer cell lines (overall statements); assay type: cell-based; conditions: Table 3
Method: as §1

Molecule | ΔTm after incubation at 37° C. for 0 h [1] | ΔTm after incubation at 37° C. for 18 h [1] | ΔTm after incubation at 37° C. for 36 h [1] | course of ΔTm over 0 hr, 18 hr and 36 hr (in words) [1] | Activity status in terms of IC50 value (Colo205 (colon)) | cell growth by % (Colo205 (colon)) | Activity status in terms of IC50 value (Hop62 (lung)) | cell growth by % (Hop62 (lung)) | Activity status in terms of IC50 value (SiHa (cervix); Cervix) | cell growth by % (SiHa (cervix)) | Activity status in terms of IC50 value (DWD (oral); Oral) | cell growth by % (DWD (oral)) | Activity status in terms of IC50 value (Zr-75-1 (breast); Zr-75-1, Breast) | Activity status in terms of IC50 value (MCF7 (breast); MCF7, Breast) | Activity status in terms of IC50 value (DU145 (prostate)) | cell growth by % (DU145 (prostate)) | Activity status in terms of IC50 value (PC3 (prostate); PC3, Prostate) | cell growth by % (PC3 (prostate)) | Activity status in terms of IC50 value (HT1080 (oral)) | cell growth by % (HT1080 (oral)) | other results
7-methoxy-8-{3-[2-benzoyl-(4,6-dichlorophenyloxy)propoxy]}-(11aS)-1,2,3,11a-tetra hydro-5H-pyrrolo[2,1-c][1,4]benzodiazepine-5-one [Compound 5g] | 1.4 °C | 1.6 °C | 2.3 °C | gradually increased | 50 µg/mL | 50% | 16 µg/mL | 84% | 26 µg/mL | 74% | 6 µg/mL | 94% | 28 µg/mL | 29 µg/mL | 80 µg/mL | 20% | 14 µg/mL | 86% | 6 µg/mL | 94% | cell growth by % (Zr-75-1 (breast)): 72%; cell growth by % (MCF7 (breast)): 71%; cytotoxicity against some cancer cell lines (in words) [2]: promising cytotoxicity
7-methoxy-8-{3-[2-benzoyl-(4-chlorophenyloxy)propoxy]}-(11aS)-1,2,3,11a-tetrahydro-5H-pyrrolo[2,1-c][1,4]benzodiazepine-5-one [Compound 5a] | 1.4 °C | 1.7 °C | 2.2 °C | gradually increased | 17 µg/mL | 83% | 13 µg/mL | 87% | 43 µg/mL | 67% | 30 µg/mL | 70% | 24 µg/mL | 27 µg/mL | 16 µg/mL | 84% | 9 µg/mL | 91% | 20 µg/mL | 80% | cell growth by % (Zr-75-1 (breast)): 76%; cell growth by % (MCF7 (breast)): 73%; cytotoxicity against some cancer cell lines (in words) [2]: promising cytotoxicity
COc1cccc2c1C(=O)c1c(O)c3c(c(O)c1C2=O)C[C@@](O)(C(=O)CO)C[C@@H]3O[C@H]1C[C@H](N)[C@H](O)[C@H](C)O1 [ADR, Adriamycin, reference compound] | – | – | – | – | – | – | – | – | – | – | – | – | – | – | – | – | – | – | – | – | IC50 (Colo205 (colon); Homo sapiens, COLO 205, Colo205, Colon, read-out: Activity status in terms of IC50 value): 5 µg/mL (≈ 9.2 µM); IC50 (Hop62 (lung); Homo sapiens, HOP-62, Hop62, Lung, read-out: Activity status in terms of IC50 value): 5 µg/mL (≈ 9.2 µM); IC50 (SiHa (cervix); Homo sapiens, Cervix, read-out: Activity status in terms of IC50 value): 5 µg/mL (≈ 9.2 µM); IC50 (DWD (oral); Homo sapiens, Oral, read-out: Activity status in terms of IC50 value): 2 µg/mL (≈ 3.68 µM); IC50 (Zr-75-1 (breast); Homo sapiens, Zr-75-1, Breast, read-out: Activity status in terms of IC50 value): 5 µg/mL (≈ 9.2 µM); IC50 (MCF7 (breast); Homo sapiens, MCF7, Breast, read-out: Activity status in terms of IC50 value): 5 µg/mL (≈ 9.2 µM); IC50 (DU145 (prostate); Homo sapiens, DU-145, DU145, Prostate, read-out: Activity status in terms of IC50 value): 6 µg/mL (≈ 11 µM); IC50 (PC3 (prostate); Homo sapiens, PC3, Prostate, read-out: Activity status in terms of IC50 value): 5 µg/mL (≈ 9.2 µM); IC50 (HT1080 (oral); Homo sapiens, HT-1080, HT1080, Oral, read-out: Activity status in terms of IC50 value): 4 µg/mL (≈ 7.36 µM)
COc1cc2c(cc1OCCCCCCOc1c(Cl)cc(Cl)cc1C(=O)c1ccccc1)N=C[C@@H]1CCCN1C2=O [Compound 5i, 7-methoxy-8-{3-[2-benzoyl-(4,6-di-chlorophenyloxy)hexyloxy]}-(11aS)-1,2,3,11a-tetrahydro-5H-pyrrolo[2,1-c][1,4]benzodiazepine-5-one] | 1.5 °C | 1.9 °C | 2.6 °C | gradually increased | >80 µg/mL | – | 40 µg/mL | 60% | >80 µg/mL | – | >80 µg/mL | – | >80 µg/mL | >80 µg/mL | 58 µg/mL | 42% | >80 µg/mL | – | 30 µg/mL | 70% | –
COc1cc2c(cc1OCC(=O)Nc1ccc(Cl)cc1C(=O)c1ccccc1Cl)N=C[C@@H]1CCCN1C2=O [Compound 5j, 7-Methoxy-8-{N1-[4-chloro-2-(2-chlorobenzoyl)phenyl]2-oxyacetamido}-(11aS)-1,2,3,11a-tetrahydro-5H-pyrrolo[2,1-c][1,4]benzodiazepine-5-one] | 1.8 °C | 2.0 °C | 2.8 °C | gradually increased | 56 µg/mL | 44% | 47 µg/mL | 53% | 23 µg/mL | 77% | 35 µg/mL | 65% | >80 µg/mL | 68 µg/mL | 43 µg/mL | 57% | 19 µg/mL | 81% | 29 µg/mL | 71% | –
COc1cc2c(cc1O)N=CC1CCCN1C2=O (stereo not drawn) [DC-81, reference compound] | 0.3 °C | 0.7 °C | – | – | – | – | – | – | – | – | – | – | – | – | – | – | – | – | – | – | –
